Data on seven compounds can be found in patent US20120253264A1, “PHOTOCHEMICAL INTERNALIZATION METHOD” (priority 2009, published 2012).

Read-outs that look alike come from different tables or passages of the source.

The nature of data set [1]: Stability of aqueous solutions of TPPS2a and TPCS2a salts at 40° C. for 31 days, analyzed by HPLC. The data set is classed as physicochemical. The method, then: Aqueous solutions of TPPS2a salts (approx. 1% weight) were kept at 40° C. for 31 days. The solutions were analyzed by HPLC(HP 1100). The HPLC conditions were as follows:
Column: Agilent Extend C-18
Mobile phase: 85% methanol, 15% water
Detector: UV detector, 415 nm
Aqueous solutions of TPCS2a salts (approx. 1% weight) were kept at 40° C. for 31 days.

Data set [2] can be described thus: Solubility in water of TPPS2a and TPCS2a salts (water added in 0.2 ml portions to approx. 50 mg).
From the text: (§1) The mixture was agitated until solid particles were broken up and dissolved.
as §1

[3] abbreviates: TPPS2a salts, aqueous solution approx. 1% weight, 40° C., 31 days, HPLC UV 415 nm.

`NCCO.NCCO.O=S(=O)(O)c1ccc(-c2c3nc(c(-c4ccc(S(=O)(=O)O)cc4)c4ccc([nH]4)c(-c4ccccc4)c4nc(c(-c5ccccc5)c5ccc2[nH]5)C=C4)C=C3)cc1` [Example 1, Meso-Tetraphenyl Porphyrin Disulphonate Bis(Monoethanolamine)]: the Degradation result in data set [1] (setting [3]) was “No degradation”.
On to `O=S(=O)(O)c1ccc(-c2c3nc(c(-c4ccc(S(=O)(=O)O)cc4)c4ccc([nH]4)c(-c4ccccc4)c4nc(c(-c5ccccc5)c5ccc2[nH]5)C=C4)C=C3)cc1.OCCN1CCCC1.OCCN1CCCC1` [Example 5, Meso-Tetraphenyl Porphyrin Disulphonate Bis(1-(2-Hydroxyethyl)Pyrrolidine)], for which the Degradation result in data set [1] is given as “No degradation”.
As to `O=S(=O)(O)c1ccc(-c2c3nc(c(-c4ccc(S(=O)(=O)O)cc4)c4ccc([nH]4)c(-c4ccccc4)c4nc(c(-c5ccccc5)c5ccc2[nH]5)C=C4)C=C3)cc1.OCCN(CCO)CCO.OCCN(CCO)CCO` [Example 6, Meso-Tetraphenyl Porphyrin Disulphonate Bis(Triethanolamine)], the Degradation entry in data set [1] (setting [3]) was “No degradation”.
Turning to “Meso-Tetraphenyl Chlorin Disulphonate Bis(Meglumate) [Example 8]”, the “Minimum solubility in water” value in data set [2] (TPCS2a salts, water added in 0.2 ml portions to approx. 50 mg until dissolved) was determined as 38.9 mg/mL. The Degradation result in data set [1] (TPCS2a salts, aqueous solution approx. 1% weight, 40° C., 31 days, HPLC) is “No degradation”.
In the case of “Meso-Tetraphenyl Chlorin Disulphonate Bis(Monoethanolamine) [Example 7]”, the Degradation entry in data set [1] is “No degradation”.
Still for that read-out and setting: the result for `O=S(=O)(O)c1ccc(-c2c3nc(c(-c4ccccc4)c4ccc([nH]4)c(-c4ccccc4)c4nc(c(-c5ccc(S(=O)(=O)O)cc5)c5ccc2[nH]5)C=C4)C=C3)cc1.OCCNCCO.OCCNCCO` [Example 4, Meso-Tetraphenyl Porphyrin Disulphonate Bis(Diethanolamine)] reads “No degradation”.
Turning to `CNCC(O)C(O)C(O)C(O)CO.CNCC(O)C(O)C(O)C(O)CO.O=S(=O)(O)c1ccc(-c2c3nc(c(-c4ccccc4)c4ccc([nH]4)c(-c4ccccc4)c4nc(c(-c5ccc(S(=O)(=O)O)cc5)c5ccc2[nH]5)C=C4)C=C3)cc1` [Example 2, Meso-Tetraphenyl Porphyrin Disulphonate Bis(Meglumate)], the “Minimum solubility in water” value in data set [2] stood at 89.7 mg/mL. In addition, the Degradation result in data set [1] is listed as “No degradation”.
